Measurements as given in article PMC9783783 (Pharmaceutics, 2022).

How the values were obtained:
[1] = Procedure: Enzyme kinetics in the hepatic and intestinal microsomes were determined according to a previously reported method. Microsomal protein concentrations in the liver and intestine were measured using bicinchoninic acid assay. […] The total volume was adjusted to 1 mL by adding 0.1 M phosphate-buffered solution (pH 7.4) to the system, and the samples were incubated for 15 min in a water-bath shaker at 37 °C at the rate of 50 oscillations per min. The reaction was completed by adding 2 volumes of methanol. Subsequently, two 50 μL aliquots of each reaction mixture were collected.
[2] = various pH buffers (pH 2–10) and gastric juice (pH 3.5), 24 h; cited from earlier work
[3] = rats (n = 3), 10 mg/kg i.v.; cited from earlier work
in vivo = settings: for AUC / clearance / CL renal / half-life / Vd / Cmax / bioavailability / Tmax: rat, in vivo; for clearance: CL; for CL renal: CLR; for half-life: Terminal half-life; for Vd: Vss; for bioavailability: F (absolute oral bioavailability), 20 mg/kg oral vs 10 mg/kg i.v.
Procedure: All surgical procedures were performed following anesthesia with 100 mg/kg ketamine according to a previously reported method. For the intravenous study, the carotid artery and jugular vein were cannulated for blood sampling and drug administration, respectively. For the oral study, rats were restrained from food overnight but were allowed to drink water ad libitum. Only the carotid artery was cannulated for the blood sampling.
A heparinized 0.9% NaCl-injectable solution (10 IU/mL) was immediately flushed into the carotid artery after collecting the blood samples to prevent blood clotting.
The volume of the combined urine was then measured, and two 100 μL aliquot samples were collected. At the same time, the rat abdomen was surgically opened, and the whole gastrointestinal tract was collected in a beaker containing 50 mL methanol and cut into small pieces. After even mixing, 50 µL of the supernatant was collected.
Pharmacokinetic parameters were estimated using the standard method by non-compartmental analysis (WinNonlin; Pharsight Corporation, Mountain View, CA, USA). AUC values were calculated using the trapezoidal rule–extrapolation method. The peak plasma concentration (Cmax) and time to reach Cmax (Tmax) were measured directly from the plasma concentration–time curves. […] The glomerular filtration rate was measured by calculating the CLCR, assuming that the kidney function was stable during the experimental period.

[4] = human, oral; cited from earlier work
P-gp = settings: cited from earlier work
in vitro = settings: for fraction unbound at 24 h, 10 μg/mL: rat, plasma, pH 7.4, Plasma protein binding
Procedure: Rat plasma (1 mL) from each group was dialyzed against 1 mL of isotonic Sørensen phosphate buffer (pH 7.4) containing 3% dextran (“the buffer”) via a Spectra/Por 2 membrane (molecular weight cutoff: 12,000–14,000 Da; Spectrum Medical Industries, Los Angeles, CA, USA). […] The binding percentage (%) was calculated as follows:(1) Binding %=CP−CB/CP×100

[5] = rats, intraportal administration; cited from earlier work
[6] = hepatic microsomes, LC rats vs CON rats
[7] = LC rats vs CON rats, 10 mg/kg i.v.
[8] = LC rats vs CON rats, 20 mg/kg oral
[9] = LC-ISN rats vs CON rats, 10 mg/kg i.v.
[10] = LC-ISN rats vs CON rats, 20 mg/kg oral
[11] = LC-ISN rats vs LC rats, 10 mg/kg i.v.
[12] = LC-ISN rats vs LC rats, 20 mg/kg oral
[13] = iv, 10 mg/kg, CON rats, 10 mg/kg i.v. 1 min infusion
[14] = iv, 10 mg/kg, LC rats, 10 mg/kg i.v. 1 min infusion
[15] = iv, 10 mg/kg, LC-ISN rats, 10 mg/kg i.v. 1 min infusion
[16] = iv, 10 mg/kg, CON rats, 10 mg/kg i.v.
[17] = iv, 10 mg/kg, LC rats, 10 mg/kg i.v.
[18] = iv, 10 mg/kg, LC-ISN rats, 10 mg/kg i.v.
[19] = po, 20 mg/kg, CON rats, 20 mg/kg oral
[20] = po, 20 mg/kg, LC rats, 20 mg/kg oral
[21] = po, 20 mg/kg, LC-ISN rats, 20 mg/kg oral

CC1CCN(C(=O)CC#N)CC1N(C)c1ncnc2[nH]ccc12 (stereo not drawn) [tofacitinib, 3-(4-methyl-3-(methyl(7H-pyrrolo[2,3-d]pyrimidin-4yl)amino)piperidin-1-yl)-3-oxopropanenitrile]
Km for disappearance of tofacitinib ([1]; hepatic microsomes, CON, LC and LC-ISN rats): comparable among the three groups of rats | Decrease in hepatic CLint [1, 6]: 64.9% | Slower Vmax for disappearance of tofacitinib [1, 6]: 63.4% | Hepatic CLint recovered to % of CON rats ([1]; hepatic microsomes, LC-ISN rats vs CON rats): 92.2% | Intestinal CLint ([1]; intestinal microsomes, CON, LC and LC-ISN rats): not significantly different among the three groups of rats | Stability [2]: stable | Biliary excretion [3]: 0.703 % of the unchanged drug dose | Ae0–24 h (excreted in urine as unchanged for 24 h) (in vivo; CON rats, 10 mg/kg i.v.): 13.9 ± 2.28 % of dose | CLNR (in vivo; CON rats, 10 mg/kg i.v.): 21.1 ± 4.57 mL/min/kg | GI24 h (remained in the gastrointestinal tract at 24 h) (in vivo; CON rats, 10 mg/kg i.v.): 0.164 ± 0.102 % of dose | Ae0–24 h (in vivo; CON rats, 20 mg/kg oral): 11.8 ± 4.08 % of dose | GI24 h (in vivo; CON rats, 20 mg/kg oral): 0.106 ± 0.101 % of dose | Greater Ae0–24 h (in vivo; [7]): 189% | Increase in AUC (in vivo; [7]): 158% | Increase in Vss (in vivo; [7]): 86.0% | Longer terminal half-life (in vivo; [7]): 219% | Slower CL (in vivo; [7]): 54.4% | Slower CLNR (in vivo; [7]): 69.9% | Increase in AUC (in vivo; [8]): 429% | Increase in Ae0–24 h (in vivo; [8]): 203% | Increase in Cmax (in vivo; [8]): 158% | Increase in F (in vivo; [8]): 105% | Ae0–24 h (excreted in urine as unchanged for 24 h) (in vivo; LC rats, 10 mg/kg i.v.): 40.2 ± 18.9 % of dose | CLNR (in vivo; LC rats, 10 mg/kg i.v.): 6.35 ± 1.27 mL/min/kg | GI24 h (remained in the gastrointestinal tract at 24 h) (in vivo; LC rats, 10 mg/kg i.v.): 2.07 ± 2.12 % of dose | Ae0–24 h (in vivo; LC rats, 20 mg/kg oral): 35.8 ± 16.9 % of dose | GI24 h (in vivo; LC rats, 20 mg/kg oral): 1.73 ± 2.04 % of dose | Greater Ae0–24 h (in vivo; [9]): 117% | Increase in terminal half-life (in vivo; [9]): 64.4% | Slower CL (in vivo; [9]): 42.7% | Slower CLNR (in vivo; [9]): 54.1% | Increase in AUC (in vivo; [10]): 223% | Increase in Ae0–24 h (in vivo; [10]): 204% | Increase in Cmax (in vivo; [10]): 72.2% | Increase in F (in vivo; [10]): 92.9% | Decrease in AUC (in vivo; [11]): 35.1% | Decrease in terminal half-life (in vivo; [11]): 48.5% | Decrease in AUC (in vivo; [12]): 38.9% | Decrease in Cmax (in vivo; [12]): 33.2% | Ae0–24 h (excreted in urine as unchanged for 24 h) (in vivo; LC-ISN rats, 10 mg/kg i.v.): 30.1 ± 12.3 % of dose | CLNR (in vivo; LC-ISN rats, 10 mg/kg i.v.): 9.68 ± 2.40 mL/min/kg | GI24 h (remained in the gastrointestinal tract at 24 h) (in vivo; LC-ISN rats, 10 mg/kg i.v.): 0.166 ± 0.135 % of dose | Ae0–24 h (in vivo; LC-ISN rats, 20 mg/kg oral): 35.9 ± 16.8 % of dose | GI24 h (in vivo; LC-ISN rats, 20 mg/kg oral): 0.340 ± 0.288 % of dose | AUC (in vivo; [13]): 7330 ng·h/mL | AUC (in vivo; [14]): 18900 ng·h/mL | AUC (in vivo; [15]): 12300 ng·h/mL | clearance (in vivo; [16]): 24.1 ± 6.27 mL/min/kg | clearance (in vivo; [17]): 11 ± 2.06 mL/min/kg | clearance (in vivo; [18]): 13.8 ± 1.73 mL/min/kg | CL renal (in vivo; [16]): 3.73 ± 1.09 mL/min/kg | CL renal (in vivo; [17]): 4.65 ± 2.74 mL/min/kg | CL renal (in vivo; [18]): 4.1 ± 1.64 mL/min/kg | half-life (in vivo; [13]): 35.4 ± 19.2 min | half-life (in vivo; [14]): 113 ± 43.7 min | half-life (in vivo; [15]): 58.2 ± 16.8 min | Vd (in vivo; [16]): 0.429 ± 0.253 L/kg | Vd (in vivo; [17]): 0.798 ± 0.177 L/kg | Vd (in vivo; [18]): 0.8 ± 0.326 L/kg | AUC (in vivo; [19]): 6400 ng·h/mL | AUC (in vivo; [20]): 33800 ng·h/mL | AUC (in vivo; [21]): 20700 ng·h/mL | CL renal (in vivo; [19]): 6.98 ± 2.99 mL/min/kg | CL renal (in vivo; [20]): 3.62 ± 1.78 mL/min/kg | CL renal (in vivo; [21]): 5.71 ± 2.47 mL/min/kg | Cmax (in vivo; [19]): 3530 ± 1460 ng/mL | Cmax (in vivo; [20]): 9100 ± 1260 ng/mL | Cmax (in vivo; [21]): 6080 ± 1990 ng/mL | bioavailability (in vivo; po, 20 mg/kg, CON rats): 43.6% | bioavailability (in vivo; po, 20 mg/kg, LC rats): 89.5% | bioavailability (in vivo; po, 20 mg/kg, LC-ISN rats): 84.1% | Tmax (in vivo; [19]): 50 min | Tmax (in vivo; [20]): 55.7 min | Tmax (in vivo; [21]): 85.7 min | GI24 h (in vivo; the three groups of rats, 20 mg/kg oral): less than 1.73 % of the oral dose | Fraction excreted by the kidneys in unmetabolized form [4]: 30% | P-gp substrate (P-gp): substrate of P-gp | Decrease in plasma protein binding (in vitro; LC rats vs CON rats): 28.3% | Decrease in plasma protein binding (in vitro; LC-ISN rats vs CON rats): 21.5% | fraction unbound at 24 h, 10 μg/mL (in vitro; CON rat plasma, 10 μg/mL tofacitinib, 37 °C, 24 h): 0.749 | fraction unbound at 24 h, 10 μg/mL (in vitro; LC rat plasma, 10 μg/mL tofacitinib, 37 °C, 24 h): 0.82 | fraction unbound at 24 h, 10 μg/mL (in vitro; LC-ISN rat plasma, 10 μg/mL tofacitinib, 37 °C, 24 h): 0.803 | fraction unbound at 24 h, 10 μg/mL (in vitro; range over CON, LC and LC-ISN rats): 0.749 to 0.82 | Hepatic first-pass effect [5]: 42.0%
